Format in all cases: functional
Test [1] has as its system Staphylococcus aureus. The test is described as follows: Antibacterial activity against group 1 PVL+ community-acquired methicillin-resistant Staphylococcus aureus ST 59 expressing SCCmec type VT gene by agar dilution method. Background: In agar dilution, organisms are placed on agar that contains the substance at set levels.
Test [2] deals with Staphylococcus aureus. The test is described as follows: Antibacterial activity against group 1-v1 PVL+ community-acquired methicillin-resistant Staphylococcus aureus ST 59 expressing SCCmec type V gene by agar dilution method.
Test [3] concerns Staphylococcus aureus. Kind of test: Antibacterial activity against group 1-v2 PVL+ community-acquired methicillin-resistant Staphylococcus aureus ST 59 expressing SCCmec type X gene by agar dilution method.
Test [4] deals with Staphylococcus aureus. The test is described as follows: Antibacterial activity against group 1-v3 PVL+ community-acquired methicillin-resistant Staphylococcus aureus ST 59 expressing SCCmec type V gene by agar dilution method.
Test [5] has as its system Staphylococcus aureus. Kind of test: Antibacterial activity against group 1-v4 PVL+ community-acquired methicillin-resistant Staphylococcus aureus ST 59 expressing SCCmec type VT gene by agar dilution method.
Test [6] concerns Staphylococcus aureus. Kind of test: Antibacterial activity against group 2 PVL+ community-acquired methicillin-resistant Staphylococcus aureus ST 30 expressing SCCmec type IVc gene by agar dilution method.
The subject of test [7] is Staphylococcus aureus. Kind of test: Antibacterial activity against group 3 PVL negative community-acquired methicillin-resistant Staphylococcus aureus ST 239 expressing SCCmec type III gene by agar dilution method.
Test [8] deals with Staphylococcus aureus. The test is described as follows: Antibacterial activity against group 3-v1 PVL negative community-acquired methicillin-resistant Staphylococcus aureus ST 900 expressing SCCmec type III gene by agar dilution method.
In test [9] the test system is Staphylococcus aureus. The test is described as follows: Antibacterial activity against group 4 PVL negative community-acquired methicillin-resistant Staphylococcus aureus ST 59 expressing SCCmec type IVx gene by agar dilution method.
Test [10] has as its system Staphylococcus aureus. Kind of test: Antibacterial activity against group 4-v1 PVL negative community-acquired methicillin-resistant Staphylococcus aureus ST 59 expressing SCCmec type X gene by agar dilution method.
Test [11] relates to Staphylococcus aureus. The test is described as follows: Antibacterial activity against group 4-v2 PVL negative community-acquired methicillin-resistant Staphylococcus aureus ST 59 expressing SCCmec type IVx gene by agar dilution method.
The test system of test [12] is Staphylococcus aureus. The test is described as follows: Antibacterial activity against group 4-v3 PVL negative community-acquired methicillin-resistant Staphylococcus aureus ST 59 expressing SCCmec type IVc gene by agar dilution method.
The test system of test [13] is Staphylococcus aureus. The test is described as follows: Antibacterial activity against group 5 PVL negative community-acquired methicillin-resistant Staphylococcus aureus ST 5 expressing SCCmec type II gene by agar dilution method.
The subject of test [14] is Staphylococcus aureus. Kind of test: Antibacterial activity against group 6 PVL negative community-acquired methicillin-resistant Staphylococcus aureus ST 8 expressing SCCmec type IVx gene by agar dilution method.

These results are taken from ChEMBL document CHEMBL1255241, “Novel characteristics of community-acquired methicillin-resistant Staphylococcus aureus strains belonging to multilocus sequence type 59 in Taiwan” (2008).

Converted amounts (≈) assume the structure as drawn.

For orientation: MIC means the lowest concentration found to suppress growth. Take `Cc1onc(-c2ccccc2)c1C(=O)N[C@@H]1C(=O)N2[C@@H]1SC(C)(C)[C@@H]2C(=O)O` [OXACILLIN]: the MIC came out at 32 µg/mL (≈ 79.7 µM) in test [1]; 64 µg/mL (≈ 159 µM) in test [2]; 64 µg/mL (≈ 159 µM) in test [3]; 4 µg/mL (≈ 9.96 µM) in test [4]; 4 µg/mL (≈ 9.96 µM) in [5]; 32 µg/mL (≈ 79.7 µM) in [6]. Also, the MIC was not below 128 µg/mL in test [7]; not below 128 µg/mL in [8]; not below 128 µg/mL in test [9]; 32 µg/mL (≈ 79.7 µM) in [10]; 64 µg/mL (≈ 159 µM) in test [11]; 32 µg/mL (≈ 79.7 µM) in [12]. The results for the MIC in [13] and in [14] were not below 128 µg/mL and 32 µg/mL (≈ 79.7 µM), respectively.
